Experimental data: patent US8536142B2, “Spinosyns for wound healing” (Eli Lilly and Company, priority 2004, dated 2013)
Where no end group is shown, it is not given here.

Test system: vascular response of rat footpad blisters (CGRP, substance P, eNOS effectors)
Assay: Blister model: effect of sensory nerve peptide antagonists and eNOS inhibitor on the vascular response to 0.5% spinosad
Type: in vivo
Experimental: Neurogenic inflammatory responses are assessed using a well-established method (Khalil & Helme, Brain Res. 527: 292-298 (1990)). Anaesthesia is induced in outbred male Sprague-Dawley rats with pentobarbitone sodium (60 mg/kg i.p). General anaesthesia is maintained by supplementary injections of 15 mg/kg. This method of anaesthesia has been shown not to alter the basal vasodilator responses in peripheral microvasculature (Khalil & Helm; Brain Res. 500: 256-262 (1989)). The left jugular vein is cannulated with polyethylene tubing for the intravenous administration of heparin/saline solution or drugs. Body temperature is maintained at 37° C. At the completion of the experiment, the animals are sacrificed by barbiturate overdose.
Blisters are induced in the middle region of the hindpaw in anaesthetised rats using vacuum pressure of −40 kPa applied for 30 minutes via a metal suction cap heated to 40° C. Once a blister is established, the epidermis (surface epithelium) is removed and a perspex chamber with inlet and outlet ports secured over the blister base. Ringer's solution is perfused over the blister surface and maintained by a peristaltic pump at 4 ml/hr to establish baseline measurements. Relative blood flow is monitored over time by a laser Doppler flowmeter via a probe placed immediately above the blister base and relative blood flux (volts) monitored continuously on a chart recorder. […]

For “CGRP8-37: CGRP antagonist; Auspep (VTHRLAGLLSRSGGVVKNNFVPTNVGSKAF; ends and bridges not checked; UniProt P06881 90-119, looked up, fragment)”, the “% contribution of effector to the vascular response of spinosad” value (effector blocked by the perfused substance (eNOS, CGRP, Substance P), 0.5% spinosad) was 27% and the “Blood flow as area under the curve” value (substance perfused 10 minutes, then co-perfused with 0.5% spinosad 30 minutes (Control = 0.5% spinosad alone), L-NAME 100 μM, CGRP8-37 1 μM, spantide II 10 μM, mean ± SEM, n = 6) was 83.2 (±6.5) cm^2.
